This passage reports IC50 results from patent US20260365682A1, “MODULATORS OF TNF-ALPHA ACTIVITY” (Forward Therapeutics, Inc., priority 2022, published 2026).

A value given as a limit tells only on which side of the number the result lay.

This test has as its target T1, TNF-α (Homo sapiens, UniProt P01375).
T1 construct: purchased R&D 210-TA-020/CF
Kind of test: TNF-α Induced HEK Blue Cellular Assay (secreted alkaline phosphatase expression, QUANTI-Blue). The settings on record: HEK Blue TNFα reporter cells; TNF-α 100 μg/ml; 24 hrs at 37° C.; inhibition of secreted alkaline phosphatase; read-out: IC50 value. It is filed as cell-based. The procedure, abridged:
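Compound was serially diluted from […] to 0.5 nM final, then incubated with 10,000 HEK Blue TNFα reporter cells per well and […] TNF-α for 24 h at 37° C. SEAP output was read by QUANTI-Blue absorbance at 620 nm. Inhibition was background-corrected against DMSO controls with and without stimulation, and IC50 was fitted with a 4-parameter logistic equation.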

T1 sequence (P01375 77-233 limits assumed): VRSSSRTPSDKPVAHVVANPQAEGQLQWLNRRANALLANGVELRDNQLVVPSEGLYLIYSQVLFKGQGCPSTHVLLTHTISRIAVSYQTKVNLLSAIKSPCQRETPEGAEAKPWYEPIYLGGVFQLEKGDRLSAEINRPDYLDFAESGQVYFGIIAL

For orientation: IC50 means the midpoint of a concentration-inhibition curve. Take `[2H]C([2H])([2H])N1C(=O)c2cccc(OC(F)F)c2[C@H]2C[C@@H]1c1nc3ccc(C#Cc4cnoc4)cc3n12` [Example 41, (7R,14R)-1-(difluoromethoxy)-11-(isoxazol-4-ylethynyl)-6-(methyl-d3)-6,7-dihydro-7,14-methanobenzo[f]benzo[4,5]imidazo[1,2-a][1,4]diazocin-5(14H)-one]: the IC50 was less than 100 nM. Then `[2H]C([2H])([2H])N1C(=O)c2cccc(OC(F)F)c2[C@H]2C[C@@H]1c1nc3ccc(C#CCOC)cc3n12` [Example 42, (7R,14R)-1-(difluoromethoxy)-11-(3-methoxyprop-1-yn-1-yl)-6-(methyl-d3)-6,7-dihydro-7,14-methanobenzo[f]benzo[4,5]imidazo[1,2-a][1,4]diazocin-5(14H)-one], with 100 to 1000 nM; and `[2H]C([2H])([2H])N1C(=O)c2cccc(OC(F)F)c2[C@H]2C[C@@H]1c1nc3ccc(C#CCOCC)cc3n12` [Example 43, (7R,14R)-1-(difluoromethoxy)-11-(3-ethoxyprop-1-yn-1-yl)-6-(methyl-d3)-6,7-dihydro-7,14-methanobenzo[f]benzo[4,5]imidazo[1,2-a][1,4]diazocin-5(14H)-one], with less than 100 nM.

As to `[2H]C([2H])([2H])N1C(=O)c2cccc(OC(F)F)c2[C@H]2C[C@@H]1c1nc3ccc(C#C)cc3n12` [Example 44, (7R,14R)-1-(difluoromethoxy)-11-ethynyl-6-(methyl-d3)-6,7-dihydro-7,14-methanobenzo[f]benzo[4,5]imidazo[1,2-a][1,4]diazocin-5(14H)-one], the IC50 is less than 100 nM. Then `[2H]C([2H])([2H])N1C(=O)c2cccc(OC(F)F)c2[C@H]2C[C@@H]1c1nc3ccc(C#Cc4ncns4)cc3n12` [Example 45, (7R,14R)-11-((1,2,4-thiadiazol-5-yl)ethynyl)-1-(difluoromethoxy)-6-(methyl-d3)-6,7-dihydro-7,14-methanobenzo[f]benzo[4,5]imidazo[1,2-a][1,4]diazocin-5(14H)-one], with less than 100 nM; and `[2H]C([2H])([2H])N1C(=O)c2cccc(OC(F)F)c2[C@H]2C[C@@H]1c1nc3ccc(C#Cc4nnc(CNC)s4)cc3n12` [Example 46, (7R,14R)-1-(difluoromethoxy)-6-(methyl-d3)-11-((5-((methylamino)methyl)-1,3,4-thiadiazol-2-yl)ethynyl)-6,7-dihydro-7,14-methanobenzo[f]benzo[4,5]imidazo[1,2-a][1,4]diazocin-5(14H)-one], with 100 to 1000 nM; and `[2H]C([2H])([2H])N1C(=O)c2cccc(OC(F)F)c2[C@H]2C[C@@H]1c1nc3ccc(C#CC4CCCCN4)cc3n12` (stereo partly drawn) [Example 47, (7R,14R)-1-(difluoromethoxy)-6-(methyl-d3)-11-(piperidin-2-ylethynyl)-6,7-dihydro-7,14-methanobenzo[f]benzo[4,5]imidazo[1,2-a][1,4]diazocin-5(14H)-one], with 10000 to 30000 nM. Then `[2H]C([2H])([2H])N1C(=O)c2cccc(OC(F)F)c2[C@H]2C[C@@H]1c1nc3ccc(C#CC4CCOCC4)cc3n12` [Example 48, (7R,14R)-1-(difluoromethoxy)-6-(methyl-d3)-11-((tetrahydro-2H-pyran-4-yl)ethynyl)-6,7-dihydro-7,14-methanobenzo[f]benzo[4,5]imidazo[1,2-a][1,4]diazocin-5(14H)-one], with less than 100 nM; and `[2H]C([2H])([2H])N1C(=O)c2cccc(OC(F)F)c2[C@H]2C[C@@H]1c1nc3ccc(C#CC4CCCCO4)cc3n12` (stereo partly drawn) [Example 49, (7R,14R)-1-(difluoromethoxy)-6-(methyl-d3)-11-((tetrahydro-2H-pyran-2-yl)ethynyl)-6,7-dihydro-7,14-methanobenzo[f]benzo[4,5]imidazo[1,2-a][1,4]diazocin-5(14H)-one], with 100 to 1000 nM; and `[2H]C([2H])([2H])N1C(=O)c2cccc(OC(F)F)c2[C@H]2C[C@@H]1c1nc3ccc(C#C[C@@H](C)N)cc3n12` [Example 50, (7R,14R)-11-((R)-3-aminobut-1-yn-1-yl)-1-(difluoromethoxy)-6-(methyl-d3)-6,7-dihydro-7,14-methanobenzo[f]benzo[4,5]imidazo[1,2-a][1,4]diazocin-5(14H)-one], with less than 100 nM. Then `[2H]C([2H])([2H])N1C(=O)c2cccc(OC(F)F)c2[C@H]2C[C@@H]1c1nc3ccc(C#C[C@H](C)N)cc3n12` [Example 51, (7R,14R)-11-((S)-3-aminobut-1-yn-1-yl)-1-(difluoromethoxy)-6-(methyl-d3)-6,7-dihydro-7,14-methanobenzo[f]benzo[4,5]imidazo[1,2-a][1,4]diazocin-5(14H)-one], with less than 100 nM; and `[2H]C([2H])([2H])N1C(=O)c2cccc(OC(F)F)c2[C@H]2C[C@@H]1c1nc3ccc(C#CC4CCNCC4)cc3n12` [Example 52, (7R,14R)-1-(difluoromethoxy)-6-(methyl-d3)-11-(piperidin-4-ylethynyl)-6,7-dihydro-7,14-methanobenzo[f]benzo[4,5]imidazo[1,2-a][1,4]diazocin-5(14H)-one], with less than 100 nM.

For the molecule `[2H]C([2H])([2H])N1C(=O)c2cccc(OC(F)F)c2[C@H]2C[C@@H]1c1nc3ccc(C#CC4CCCO4)cc3n12` (stereo partly drawn) [Example 53, (7R,14R)-1-(difluoromethoxy)-6-(methyl-d3)-11-((tetrahydrofuran-2-yl)ethynyl)-6,7-dihydro-7,14-methanobenzo[f]benzo[4,5]imidazo[1,2-a][1,4]diazocin-5(14H)-one], the IC50 is less than 100 nM. For `[2H]C([2H])([2H])N1C(=O)c2cccc(OC(F)F)c2[C@H]2C[C@@H]1c1nc3ccc(C#C[C@@H](C)NCC)cc3n12` [Example 54, (7R,14R)-1-(difluoromethoxy)-11-((R)-3-(ethylamino)but-1-yn-1-yl)-6-(methyl-d3)-6,7-dihydro-7,14-methanobenzo[f]benzo[4,5]imidazo[1,2-a][1,4]diazocin-5(14H)-one], the IC50 was in the range of 10000 to 30000 nM.

On to `[2H]C([2H])([2H])N1C(=O)c2cccc(OC(F)F)c2[C@H]2C[C@@H]1c1nc3ccc(C#C[C@H](C)NCC)cc3n12` [Example 55, (7R,14R)-1-(difluoromethoxy)-11-((S)-3-(ethylamino)but-1-yn-1-yl)-6-(methyl-d3)-6,7-dihydro-7,14-methanobenzo[f]benzo[4,5]imidazo[1,2-a][1,4]diazocin-5(14H)-one], for which the IC50 fell in the range of 10000 to 30000 nM. Then `[2H]C([2H])([2H])N1C(=O)c2cccc(OC(F)F)c2[C@H]2C[C@@H]1c1nc3ccc(C#CCOC(C)(C)C)cc3n12` [Example 56, (7R,14R)-11-(3-(tert-butoxy)prop-1-yn-1-yl)-1-(difluoromethoxy)-6-(methyl-d3)-6,7-dihydro-7,14-methanobenzo[f]benzo[4,5]imidazo[1,2-a][1,4]diazocin-5(14H)-one], with less than 100 nM; and `[2H]C([2H])([2H])N1C(=O)c2cccc(OC(F)F)c2[C@H]2C[C@@H]1c1nc3ccc(C#CC4CCN(C)CC4)cc3n12` [Example 57, (7R,14R)-1-(difluoromethoxy)-6-(methyl-d3)-11-((1-methylpiperidin-4-yl)ethynyl)-6,7-dihydro-7,14-methanobenzo[f]benzo[4,5]imidazo[1,2-a][1,4]diazocin-5(14H)-one], with 100 to 1000 nM; and `[2H]C([2H])([2H])N1C(=O)c2cccc(OC(F)F)c2[C@H]2C[C@@H]1c1nc3ccc(C#C[C@H]4CCCN4)cc3n12` [Example 58, (7R,14R)-1-(difluoromethoxy)-6-(methyl-d3)-11-(((R)-pyrrolidin-2-yl)ethynyl)-6,7-dihydro-7,14-methanobenzo[f]benzo[4,5]imidazo[1,2-a][1,4]diazocin-5(14H)-one], with 10000 to 30000 nM. With `[2H]C([2H])([2H])N1C(=O)c2cccc(OC(F)F)c2[C@H]2C[C@@H]1c1nc3ccc(C#C[C@@H]4CCCN4)cc3n12` [Example 59, (7R,14R)-1-(difluoromethoxy)-6-(methyl-d3)-11-(((S)-pyrrolidin-2-yl)ethynyl)-6,7-dihydro-7,14-methanobenzo[f]benzo[4,5]imidazo[1,2-a][1,4]diazocin-5(14H)-one], the IC50 was 10000 to 30000 nM.

Regarding `[2H]C([2H])([2H])N1C(=O)c2cccc(OC(F)F)c2[C@H]2C[C@@H]1c1nc3ccc(C#CC4CCCNC4)cc3n12` (stereo partly drawn) [Example 60, (7R,14R)-1-(difluoromethoxy)-6-(methyl-d3)-11-(piperidin-3-ylethynyl)-6,7-dihydro-7,14-methanobenzo[f]benzo[4,5]imidazo[1,2-a][1,4]diazocin-5(14H)-one], the IC50 is less than 100 nM.

Consider `[2H]C([2H])([2H])N1C(=O)c2cccc(OC(F)F)c2[C@H]2C[C@@H]1c1nc3ccc(C#CCN(C)C)cc3n12` [Example 61, (7R,14R)-1-(difluoromethoxy)-11-(3-(dimethylamino)prop-1-yn-1-yl)-6-(methyl-d3)-6,7-dihydro-7,14-methanobenzo[f]benzo[4,5]imidazo[1,2-a][1,4]diazocin-5(14H)-one], for which the IC50 was 100 to 1000 nM. Regarding `[2H]C([2H])([2H])N1C(=O)c2cccc(OC(F)F)c2[C@H]2C[C@@H]1c1nc3ccc(C#CCN(CC)CC)cc3n12` [Example 62, (7R,14R)-11-(3-(diethylamino)prop-1-yn-1-yl)-1-(difluoromethoxy)-6-(methyl-d3)-6,7-dihydro-7,14-methanobenzo[f]benzo[4,5]imidazo[1,2-a][1,4]diazocin-5(14H)-one], the IC50 is less than 100 nM. Then `[2H]C([2H])([2H])N1C(=O)c2cccc(OC(F)F)c2[C@H]2C[C@@H]1c1nc3ccc(C#CC4CCCN(C)C4)cc3n12` (stereo partly drawn) [Example 63, (7R,14R)-1-(difluoromethoxy)-6-(methyl-d3)-11-((1-methylpiperidin-3-yl)ethynyl)-6,7-dihydro-7,14-methanobenzo[f]benzo[4,5]imidazo[1,2-a][1,4]diazocin-5(14H)-one], with less than 100 nM.
